Legend:
aldose reductase [1] = biological target: aldose reductase (Bos taurus, UniProt P16116); assay: % inhibition in vitro at 10^-7 M (aldose reductase inhibition); type: biochemical
[2] = test system: dulcitol accumulation in the diaphragm; assay: % lowering dulcitol accumulation in vivo, diaphragm (D), galactosemic rats; design: species or system rat (Sprague-Dawley); settings: 4 days
Text: (§1) Such experiments are exemplified hereinbelow after the listing of the following general comments pertaining to these experiments:
(§2) (a) Four or more groups of six male rates, 50-70 g, Sprague-Dawley strain, were used. The first group, the control group, was fed a mixture of laboratory chow (rodent laboratory chow, Purina) and glucose at 20% (w/w %) concentration. The untreated galactosemic group was fed a similar diet in which galactose is substituted for glucose. The third group was fed a diet prepared by mixing a given amount of the test compound with the galactose containing diet. The concentration of galactose in the diet of the treated groups was the same as that for the untreated galactosemic group.
(§3) Only two minor reagent changes were made: (a) The rinsing mixture was an aqueous 5% (w/v) trichloroacetic acid solution and (b) the stock solution was prepared by dissolving 25 mg of dulcitol in 100 ml of an aqueous trichloroacetic acid solution. [N.B.: For each experiment the average value found in the tissue from rats fed the glucose diet was subtracted from the individual values found in the corresponding rat tissue to obtain the amount of polyol accumulated.]
(§4) The figures under L, N and D represent the percentage decrease of dulcitol accumulation in the tissues of the lens, sciatic nerve and diaphragm, respectively, for treated rats as compares to untreated rats.

[3] = test system: dulcitol accumulation in the lens; assay: % lowering dulcitol accumulation in vivo, lens (L), galactosemic rats; design: species or system rat (Sprague-Dawley); settings: 4 days
Text: as §1, §2
(§5) (b) After four days, the animals were killed by decapitation. The eyeballs were removed and punctured with a razor blade; the freed lenses were rolled gently on filter paper and weighed. The sciatic nerves were dissected as completely as possible and weighed. Both tissues were frozen and can be kept up to two weeks before being analyzed for dulcitol.
as §3, §4

aldose reductase [4] = biological target: aldose reductase (Homo sapiens, UniProt P15121); settings: literature report; cited from earlier work
dulcitol accumulation = assay: galactosemic rats, dulcitol accumulation, overall comparison in words; type: in vivo, rat (Sprague-Dawley)
Text: The aldose reductase inhibiting property of the compounds of this invention and the utilization of the compounds in preventing, diminishing and alleviating diabetic complications are demonstrable in experiments using galactosemic rats, see Dvornik et at., cited above. Such experiments are exemplified hereinbelow after the listing of the following general comments pertaining to these experiments:
as §2, §5
as §3, with “(c) The polyol determination was performed by a modification of the procedure of M. Kraml and L. Cosyns, Clin. Biochem., 2,373 (1969). Only” for “Only”
as §4

[5] = 24.5 mg/kg/day in galactose diet

COc1ccc2c(C(=O)N(C)CC(=O)O)cccc2c1C(F)(F)C(F)(F)F [Compound 2, N-[[6-Methoxy-5-(pentafluoroethyl)-1-naphthalenyl]carbonyl]-N-methylglycine]
inhibition at 0.1 µM (aldose reductase [1]): 56% | % lowering dulcitol accumulation in vivo, D ([2]; 29 mg/kg/day in galactose diet): 68%

COc1ccc2c(C(=S)N(C)CC(=O)O)cccc2c1C(F)(F)C(F)(F)F [Compound 1, N-[[6-methoxy-5-(pentafluoroethyl)-1-naphthalenyl]thioxomethyl]-N-methylglycine]
inhibition at 0.1 µM (aldose reductase [1]): 71% | % lowering dulcitol accumulation in vivo, D [2, 5]: 93% | % lowering dulcitol accumulation in vivo, L [3, 5]: 29%

O=C(O)CN1C(=O)c2cccc3cccc(c23)C1=O [1,3-Dioxo-1H-benz[de]isoquinoline-2(3H)-acetic acid]
inhibition of aldose reductase (aldose reductase [4]): effective inhibitor of aldose reductase

COc1ccc2c(C(=S)N(C)CC(=O)O)cccc2c1C(F)(F)F [Compound 7, N--[[5-(Trifluoromethyl)-6-methoxy-1-naphthalenyl]thioxomethyl]-N--methylglycine, reference compound]
% lowering dulcitol accumulation in vivo, D ([2]; 11 mg/kg/day in galactose diet): 89%

COc1ccc2c(C(=O)N(C)CC(=O)O)cccc2c1C(F)(F)F [Compound 8, N--[ [5-(Trifluoromethyl)-6-methoxy-1-naphthalenyl]carbonyl]-N--methylglycine, reference compound]
inhibition at 0.1 µM (aldose reductase [1]): 57% | % lowering dulcitol accumulation in vivo, D ([2]; 10 mg/kg/day in galactose diet): 20% | % lowering dulcitol accumulation in vivo, L ([3]; 10 mg/kg/day in galactose diet): 0%

COc1ccc2c(C(=O)N(C)CC(=O)O)cccc2c1C(F)(F)C(F)(F)C(F)(F)F [Compound 4, N-[[5-(heptafluoropropyl)-6-methoxy-1-naphthalenyl]carbonyl]-N-methylglycine]
inhibition at 0.1 µM (aldose reductase [1]): 63% | % lowering dulcitol accumulation in vivo, D ([2]; 10 mg/kg/day in galactose diet): 38% | % lowering dulcitol accumulation in vivo, L ([3]; 10 mg/kg/day in galactose diet): 19% | activity compared with compound No. 7 (tolrestat) at 11 mg/kg/day (dulcitol accumulation; 10 mg/kg/day): comparable results

COc1ccc2c(C(=O)N(C)CC(=O)O)cccc2c1C(F)(F)C(F)(F)C(F)(F)C(F)(F)C(F)(F)C(F)(F)F [Compound 6, N--[[5-(Tridecafluorohexyl)-6-methoxy-1-naphthalenyl]carbonyl]-N--methylglycine]
inhibition at 0.1 µM (aldose reductase [1]): 47% | % lowering dulcitol accumulation in vivo, D ([2]; 25 mg/kg/day in galactose diet): 0% | % lowering dulcitol accumulation in vivo, L ([3]; 25 mg/kg/day in galactose diet): 0%

COc1ccc2c(C(=S)N(C)CC(=O)O)cccc2c1C(F)(F)C(F)(F)C(F)(F)C(F)(F)C(F)(F)C(F)(F)F [Compound 5, N-[[6-Methoxy-5-(tridecafluorohexyl)-1-naphthalenyl]thioxomethyl]-N-methylglycine]
inhibition at 0.1 µM (aldose reductase [1]): 40% | % lowering dulcitol accumulation in vivo, D ([2]; 26 mg/kg/day in galactose diet): 51% | % lowering dulcitol accumulation in vivo, L ([3]; 26 mg/kg/day in galactose diet): 0%

COc1ccc2c(C(=S)N(C)CC(=O)O)cccc2c1C(F)(F)C(F)(F)C(F)(F)F [Compound 3, N-[[5-(heptafluoropropyl)-6-methoxy-1-naphthalenyl]thioxomethyl]-N-methylglycine]
inhibition at 0.1 µM (aldose reductase [1]): 75% | % lowering dulcitol accumulation in vivo, D ([2]; 5 mg/kg/day in galactose diet): 76% | % lowering dulcitol accumulation in vivo, L ([3]; 5 mg/kg/day in galactose diet): 20% | activity compared with tolrestat at 4 mg/kg/day (dulcitol accumulation; 5 mg/kg/day): superior to tolrestat | activity compared with tolrestat at 11 mg/kg/day (dulcitol accumulation; 5 mg/kg/day): approaches the activity of tolrestat | activity relative to tolrestat (dulcitol accumulation; about twice as active as tolrestat): about twice

O=C1NC(=O)[C@@]2(CCOc3ccc(F)cc32)N1 [sorbinol, (S)-6-Fluoro-2,3-dihydrospiro(4H-1-benzopyran-4,4'-imidazolidine)-2',5'-dione]
inhibition of aldose reductase (aldose reductase [4]): aldose reductase inhibiting properties

From US4604406A, “N-[6-methoxy-5-(perfluoroalkyl)-1-naphtholyl]-N-methylglycines and their thionaphthoyl analogs” (Ayerst, McKenna & Harrison, Inc., priority 1984, dated 1986)
